Measured values as given in ChEMBL document CHEMBL1201862, “PubChem BioAssay data set” (2004).
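Exposure lasted 48 hours, with cells grown in 96-well plates and compounds tested at five concentrations. Abbreviation: GI50, concentration required for 50% inhibition of growth.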 Calls of active or inactive are those of the source. Cut-off read from the data, not from the text of the source: active = GI50 up to about 1.1 µM and inactive = higher.

Key:
Assay in all cases: growth of human tumour cells (NCI), 48 h
CAKI-1 = system: CAKI-1
CCRF-CEM = system: CCRF-CEM
COLO 205 = system: COLO 205
EKVX = system: EKVX
HCT-15 = system: HCT-15
HOP-62 = system: HOP-62
HOP-92 = system: HOP-92
K562 = system: K562
M14 = system: M14
MOLT-4 = system: MOLT-4
OVCAR-4 = system: OVCAR-4
OVCAR-5 = system: OVCAR-5
SF-539 = system: SF-539
SK-MEL-28 = system: SK-MEL-28
SK-MEL-5 = system: SK-MEL-5
SK-OV-3 = system: SK-OV-3
SN12C = system: SN12C
UACC-62 = system: UACC-62
NCI-H460 = system: NCI-H460
NCI-H522 = system: NCI-H522

| Compound | GI50 (CAKI-1) | GI50 (CCRF-CEM) | GI50 (COLO 205) | GI50 (EKVX) | GI50 (HCT-15) [µM] | GI50 (HOP-62) | GI50 (HOP-92) | GI50 (K562) | GI50 (M14) | GI50 (MOLT-4) | GI50 (OVCAR-4) | GI50 (OVCAR-5) | GI50 (SF-539) | GI50 (SK-MEL-28) | GI50 (SK-MEL-5) | GI50 (SK-OV-3) | GI50 (SN12C) | GI50 (UACC-62) | GI50 (NCI-H460) | GI50 (NCI-H522) |
| --- | --- | --- | --- | --- | --- | --- | --- | --- | --- | --- | --- | --- | --- | --- | --- | --- | --- | --- | --- | --- |
| CC12CCC3[C@@H](CC3(C)C)C(O)(CCC1=O)C2 (some centres undefined) | > 100 µM (inactive) | > 100 µM (inactive) | > 100 µM (inactive) | > 100 µM (inactive) | > 100 | > 100 µM (inactive) | > 100 µM (inactive) | > 100 µM (inactive) | > 100 µM (inactive) | > 100 µM (inactive) | > 100 µM (inactive) | > 100 µM (inactive) | > 100 µM (inactive) | > 100 µM (inactive) | > 100 µM (inactive) | > 100 µM (inactive) | > 100 µM (inactive) | > 100 µM (inactive) |  |  |
| CCOC(=O)c1cn(-c2ccc([N+](=O)[O-])cc2)c(=S)n2c1nc1ccccc12 | 42.9 µM (inactive) | 9.84 µM (inactive) | 23.2 µM (inactive) | 53.7 µM (inactive) | 35.4 | 63.2 µM (inactive) | 18.5 µM (inactive) | 46.5 µM (inactive) | 61 µM (inactive) | 28 µM (inactive) | 21.6 µM (inactive) | > 100 µM (inactive) | 32 µM (inactive) | 49.9 µM (inactive) | 21.9 µM (inactive) |  | 50.1 µM (inactive) | 31.8 µM (inactive) | 51.5 µM (inactive) |  |
| O=C(OCCN=c1c2ccccc2ccc2ccccc12)c1ccc([N+](=O)[O-])cc1 | > 100 µM (inactive) | > 100 µM (inactive) | > 100 µM (inactive) | > 100 µM (inactive) | > 100 | > 100 µM (inactive) | > 100 µM (inactive) | > 100 µM (inactive) | > 100 µM (inactive) | > 100 µM (inactive) | > 100 µM (inactive) | > 100 µM (inactive) | > 100 µM (inactive) | > 100 µM (inactive) | > 100 µM (inactive) | > 100 µM (inactive) | > 100 µM (inactive) | > 100 µM (inactive) | > 100 µM (inactive) |  |
| CN1CCn2c(Br)ccc2C1=O | > 100 µM (inactive) | > 100 µM (inactive) | > 100 µM (inactive) | > 100 µM (inactive) | > 100 | > 100 µM (inactive) |  | > 100 µM (inactive) | > 100 µM (inactive) | > 100 µM (inactive) | > 100 µM (inactive) |  | > 100 µM (inactive) | > 100 µM (inactive) |  |  | > 100 µM (inactive) | > 100 µM (inactive) | > 100 µM (inactive) | > 100 µM (inactive) |
| Cn1c2ccccc2c(=O)c2cccc(C(=O)NCC(=O)O)c21 |  |  | > 100 µM (inactive) | 36.8 µM (inactive) | > 100 | > 100 µM (inactive) |  | > 100 µM (inactive) | > 100 µM (inactive) | > 100 µM (inactive) | > 100 µM (inactive) | > 100 µM (inactive) | > 100 µM (inactive) | > 100 µM (inactive) | > 100 µM (inactive) | > 100 µM (inactive) | > 100 µM (inactive) | > 100 µM (inactive) | > 100 µM (inactive) |  |
| CC(=O)CCn1ncc(Cl)c(Cl)c1=O | 1.91 µM (inactive) | 21.9 µM (inactive) |  | 18.6 µM (inactive) | 6.55 | 19.7 µM (inactive) | 17 µM (inactive) | 3.51 µM (inactive) | 15.7 µM (inactive) | 20.6 µM (inactive) | 9.95 µM (inactive) | 19.1 µM (inactive) | 22.2 µM (inactive) | 13.8 µM (inactive) | 19.2 µM (inactive) |  | 14.3 µM (inactive) | 17.2 µM (inactive) | 20.2 µM (inactive) |  |
